# Patent US20180264282A1, “Specially Designed Kit To Aid Photo-Biologic Eradication Of Staphylococcus Aureus And MRSA In The Nares” (Nomir Medical Technologies, Inc., priority 2017, published 2018)
# Where “and” joins values, the source holds several entries; their conditions need not be identical. Identical values can stand only once. Like-named read-outs stand apart in the source and are kept apart here.
# Columns and labels:
# [1] = tested on: nasal carriage of staphylococci; settings: in snuff compounds; returned to normal after snuff therapy was discontinued; cited from earlier work
# sycosis barbae = settings: cream to skin lesions and nose; cited from earlier work
# S. aureus [2] = settings: after five days of local treatment to the nose, cited from earlier work
# [3] = tested on: impetigo and furunculosis; settings: spray; cited from earlier work
# [4] = tested on: Staphylococcal furunculosis in the nose; settings: 25% aqueous solution, topical; patients with chronic Staphylococcal furunculosis in the nose; cited from earlier work
# S. aureus [5] = settings: nasal administration; cited from earlier work
# pyogenic skin infections = settings: 2% water miscible cream three times per day for five days; assessed day seven; cited from earlier work
# [6] = tested on: gram-positive bacteria such as S. aureus; settings: cited from earlier work
# S. aureus [7] = settings: cited from earlier work
# S. aureus [8] = settings: in paraffin intra-nasally b.i.d. for five days; 72 hours after therapy; cited from earlier work
# S. aureus [9] = settings: cited from earlier work; remark: listed apart in the source
# S. aureus [10] = assay: summary of clinical nasal decolonization studies using mupirocin treatments; assay type: in vivo, human; settings: administered three times per day versus twice per day
# Description: Overall, the results from clinical studies of nasal decolonization studies using various mupirocin treatments are summarized in the table below: […]
# S. aureus [11] = settings: cited from earlier work; remark: listed apart in the source
# S. aureus [12] = settings: b.i.d. five day regimen; cited from earlier work
# [13] = tested on: gram-negative enterobacteriacea; settings: cited from earlier work
# S. aureus [14] = settings: cited from earlier work; remark: listed apart in the source
# [15] = tested on: gram-positive enterococci; settings: cited from earlier work
# MRSA = settings: cited from earlier work
# [16] = three weeks after the treatment phase
molecule,measurement,setting,value
Nc1ccc(S(=O)(=O)Nc2nccs2)cc1 [sulphathiazole],nasal colonies,[1],great reduction in nasal colonies
penicillin,healing of patients,sycosis barbae,all but one patient healed to satisfaction
same,skin carriage,S. aureus [2]; from 57% before,38%
same,nasal S. aureus carriage,S. aureus [2]; from 97% before,37%
same,use in treatment of impetigo and furunculosis,[3],successful
same,nasal colonies,[1],great reduction in nasal colonies
[Cl][Al]([Cl])[Cl] [aluminum chloride],treatment outcome,[4],successful treatment outcome for all
Cc1onc(-c2ccccc2)c1C(=O)N[C@@H]1C(=O)N2[C@@H]1SC(C)(C)[C@@H]2C(=O)O [oxacillin],aerial colonies of S. aureus,S. aureus [5],decreased the aerial colonies of S. aureus
same,nasal colonization,S. aureus [5],decreased nasal colonization
C/C(=C\C(=O)OCCCCCCCCC(=O)O)C[C@@H]1OC[C@H](C[C@@H]2O[C@H]2[C@@H](C)[C@H](C)O)[C@@H](O)[C@H]1O [mupirocin],patients with infection completely cleared,pyogenic skin infections,43 of the 46
same,antibacterial activity,[6],antibacterial activity
same,cross-resistance with other antibiotics,[6],no cross-resistance
same,patients with S. aureus carriage eliminated from nares,"S. aureus [7]; 2% in white soft paraffin four times per day, 18 treated",all
same,change in MIC to mupirocin on recolonization,S. aureus [7]; [16],without an increase
same,patients who regained S. aureus in the nares,S. aureus [7]; [16],three
same,proportion of hand cultures positive for S. aureus,S. aureus [8],2.9%
same,participants with S. aureus eradicated,"S. aureus [9]; in paraffin t.i.d. for five days, tested four days after the last dose",67 of the 69
same,patients recolonized with S. aureus in the nose,S. aureus [9]; two weeks post therapy,approximately 40%
same,outcomes t.i.d. compared with b.i.d.,S. aureus [10],statistically significantly better outcomes
same,Elimination after trial,"S. aureus [11]; 2X-3X per day, 3-8 days",97%
same,Elimination after trial,"S. aureus [11]; 3X per Day, 5 Days",100% and 97%
same,Elimination after trial,"S. aureus [11]; 4X per Day, 5 Days",100%
same,Recolonization,"S. aureus [11]; at 3 weeks, 4X per Day, 5 Days",16% at 3 weeks
same,Recolonization,"S. aureus [11]; at 4 weeks, 2X per day, 5 days",43% at 4 weeks and 22% at 4 weeks and 26% at 4 weeks
same,patients with nasal carriage eliminated,S. aureus [12],approximately 80%
same,antibacterial activity,[13],not substantial activity
same,effective concentrations,S. aureus [14],0.05 to 0.5 µg/mL
same,mutant inhibitory concentration (MIC),S. aureus [14],0.05 µg/mL
same,type of effect at MIC,"S. aureus [14]; within MIC range cells recover in fresh media, higher concentrations needed for bactericidal effect",bacteriostatic
same,antibacterial activity,[15],not substantial activity
same,treated patients and staff with nasal carriage eliminated,"MRSA; 2% in paraffin t.i.d. for five days, 40 patients and 32 staff",all
same,number of patients with MRSA isolated from wrists,"MRSA; immediately after therapy was completed, from 16 before",three
same,time to elimination of nasal carriage,MRSA; usually,≤ 48 h
same,patients recolonized,MRSA; within two weeks after therapy,Four
